Values joined by “and” are separate entries in the source; they are usually repeats but may differ in a detail not shown here. Identical values can stand only once. Toxic doses and inconclusive results are not listed. How the source made its calls: active means survival T/C of 150% or more; inactive means T/C below 125% in these data.
Tested on: P388 leukemia ip, CD2F1 mice, survival T/C
Experiment: NCI In Vivo Anticancer Drug Screen. Data for tumor model P388 Leukemia (intraperitoneal) in CD2F1 (CDF1) mice
Settings: endpoint: median survival time, higher = longer survival
Procedure, shortened: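 Mice carrying the transplanted tumor received test compound or vehicle. Survival was recorded in each group, and the value is the treated-group measurement divided by that of the vehicle-treated control group.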

[1] = dose: 50.0 mg/kg/injection, schedule: Q01DX009 (ip), vehicle: saline
[2] = dose: 200.0 mg/kg/injection, schedule: Q01DX009 (ip), vehicle: saline
[3] = dose: 50.0 mg/kg/injection, schedule: Q01DX009 (ip), vehicle: saline with Tween-80
[4] = dose: 100.0 mg/kg/injection, schedule: Q01DX009 (ip), vehicle: saline with Tween-80
[5] = dose: 200.0 mg/kg/injection, schedule: Q01DX009 (ip), vehicle: saline with Tween-80
[6] = dose: 100.0 mg/kg/injection, schedule: Q01DX001 (ip), vehicle: Klucel (hydroxypropylcellulose) (HPC)
[7] = dose: 200.0 mg/kg/injection, schedule: Q01DX001 (ip), vehicle: Klucel (hydroxypropylcellulose) (HPC)
[8] = dose: 50.0 mg/kg/injection, schedule: Q01DX005 (ip), vehicle: saline with Tween-80
[9] = dose: 100.0 mg/kg/injection, schedule: Q01DX005 (ip), vehicle: saline with Tween-80
[10] = dose: 200.0 mg/kg/injection, schedule: Q01DX005 (ip), vehicle: saline with Tween-80
[11] = dose: 50.0 mg/kg/injection, schedule: Q01DX005 (ip), vehicle: Klucel (hydroxypropylcellulose) (HPC)
[12] = dose: 100.0 mg/kg/injection, schedule: Q01DX005 (ip), vehicle: Klucel (hydroxypropylcellulose) (HPC)
[13] = dose: 200.0 mg/kg/injection, schedule: Q01DX005 (ip), vehicle: Klucel (hydroxypropylcellulose) (HPC)
[14] = dose: 50.0 mg/kg/injection, schedule: Q04DX003 (ip), vehicle: saline sonified
[15] = dose: 100.0 mg/kg/injection, schedule: Q04DX003 (ip), vehicle: saline sonified
[16] = dose: 50.0 mg/kg/injection, schedule: Q01DX009 (ip), vehicle: Klucel (hydroxypropylcellulose) (HPC)
[17] = dose: 100.0 mg/kg/injection, schedule: Q01DX009 (ip), vehicle: Klucel (hydroxypropylcellulose) (HPC)
[18] = dose: 200.0 mg/kg/injection, schedule: Q01DX009 (ip), vehicle: Klucel (hydroxypropylcellulose) (HPC)
[19] = dose: 100.0 mg/kg/injection, schedule: Q04DX003 (ip), vehicle: saline with Tween-80
[20] = dose: 200.0 mg/kg/injection, schedule: Q04DX003 (ip), vehicle: saline with Tween-80

Measured: T/C

COc1ccc(C2OC(=O)C=C(C)O2)cc1 (stereo unspecified)
inactive: dose: 60.0 mg/kg/injection, schedule: Q01DX005 (ip), vehicle: Klucel (hydroxypropylcellulose) (HPC) 104 % of control | dose: 120.0 mg/kg/injection, schedule: Q01DX005 (ip), vehicle: Klucel (hydroxypropylcellulose) (HPC) 98 % of control | dose: 240.0 mg/kg/injection, schedule: Q01DX005 (ip), vehicle: Klucel (hydroxypropylcellulose) (HPC) 117 % of control

NC(=O)c1ncn(C2OC(CO)C(O)C2O)c1N (stereo unspecified)
inactive: [1] 106 % of control and 109 % of control | dose: 100.0 mg/kg/injection, schedule: Q01DX009 (ip), vehicle: saline 98 % of control and 95 % of control | [2] 103 % of control and 108 % of control | dose: 400.0 mg/kg/injection, schedule: Q01DX009 (ip), vehicle: saline 107 % of control and 87 % of control

O=C1CCSCC1
inactive: [3] 99 % of control | [4] 113 % of control | [5] 100 % of control | dose: 400.0 mg/kg/injection, schedule: Q01DX009 (ip), vehicle: saline with Tween-80 98 % of control

CN1CCN(C(=S)C(O)(c2ccccc2)c2ccccc2)CC1
inactive: [6] 105 % of control | [7] 105 % of control | dose: 400.0 mg/kg/injection, schedule: Q01DX001 (ip), vehicle: Klucel (hydroxypropylcellulose) (HPC) 100 % of control

C[As+](C)(C)SCCO
inactive: dose: 100.0 mg/kg/injection, schedule: Q04DX002 (ip), vehicle: saline 98 % of control | dose: 200.0 mg/kg/injection, schedule: Q04DX002 (ip), vehicle: saline 95 % of control | dose: 400.0 mg/kg/injection, schedule: Q04DX002 (ip), vehicle: saline 95 % of control

COC(=O)C(C)n1c(C(C)C)csc1=S (stereo unspecified)
inactive: [8] 111 % of control | [9] 110 % of control | [10] 98 % of control

CC(C)(C)P(c1ccccc1)C(C)(C)C
inactive: dose: 100.0 mg/kg/injection, schedule: Q04DX002 (ip), vehicle: saline with Tween-80 103 % of control

N#CC1=C(O)NC(O)=C(C#N)C12C(=O)Nc1ccccc12
inactive: [11] 98 % of control | [8] 104 % of control | [12] 101 % of control | [9] 104 % of control | [13] 99 % of control | [10] 104 % of control

CCC(CC)N(C)C(C)(C)CO
inactive: [14] 96 % of control | [15] 100 % of control

Cc1ccc(S(=O)(=O)NCCCc2ccccc2)cc1
inactive: [16] 118 % of control | [17] 123 % of control | [18] 115 % of control

O=c1[nH]cnc2[nH]ncc12
inactive: dose: 20.0 mg/kg/injection, schedule: Q01DX005 (ip), vehicle: saline with Tween-80 104 % of control | dose: 40.0 mg/kg/injection, schedule: Q01DX005 (ip), vehicle: saline with Tween-80 110 % of control | dose: 50.0 mg/kg/injection, schedule: Q01DX009 (ip), vehicle: saline sonified 95 % of control | [3] 95 % of control | [14] 109 % of control | dose: 50.0 mg/kg/injection, schedule: Q04DX003 (ip), vehicle: saline with Tween-80 90 % of control | dose: 80.0 mg/kg/injection, schedule: Q01DX005 (ip), vehicle: saline with Tween-80 106 % of control | dose: 100.0 mg/kg/injection, schedule: Q01DX009 (ip), vehicle: saline sonified 100 % of control | [4] 95 % of control | [15] 95 % of control | [19] 95 % of control | dose: 160.0 mg/kg/injection, schedule: Q01DX005 (ip), vehicle: saline with Tween-80 104 % of control | dose: 200.0 mg/kg/injection, schedule: Q01DX009 (ip), vehicle: saline sonified 100 % of control | dose: 200.0 mg/kg/injection, schedule: Q04DX003 (ip), vehicle: saline sonified 113 % of control | [20] 104 % of control

CCOC(=O)c1[nH]c(C)nc1/N=N/N(C)C
inactive: dose: 25.0 mg/kg/injection, schedule: Q01DX009 (ip), vehicle: saline 119 % of control | [1] 116 % of control | [2] 116 % of control

CC(C)N1C(C)c2ccccc2OS1=O (stereo unspecified)
inactive: [16] 99 % of control | [17] 108 % of control

O=[N+]([O-])c1cccc(NC(c2ccc(N(CCCl)CCCl)cc2)P(=O)(Oc2ccccc2)Oc2ccccc2)c1 (stereo unspecified)
inactive: [16] 95 % of control | [17] 98 % of control | [18] 95 % of control

CC12CC3(C)CC(C)(C1)CC(C(NC(C)(C)C)C(=O)O)(C2)C3 (stereo unspecified)
inactive: dose: 25.0 mg/kg/injection, schedule: Q01DX009 (ip), vehicle: saline with Tween-80 100 % of control | [3] 100 % of control and 105 % of control and 122 % of control | [4] 99 % of control and 110 % of control and 96 % of control | [5] 99 % of control

COc1cc(N)c2ncccc2c1Br
inactive: [11] 100 % of control | [12] 104 % of control | [13] 97 % of control

CCN(CC)CCSc1nnc(-c2ccc3c(c2)OCO3)o1
inactive: dose: 50.0 mg/kg/injection, schedule: Q04DX003 (ip), vehicle: water 99 % of control | dose: 100.0 mg/kg/injection, schedule: Q04DX003 (ip), vehicle: water 99 % of control | dose: 200.0 mg/kg/injection, schedule: Q04DX003 (ip), vehicle: water 101 % of control

COc1ccc2ccccc2c1C1=CC(c2ccccc2)C(C(=O)Cc2ccccc2)C(=O)N1 (stereo unspecified)
inactive: [19] 101 % of control | [20] 92 % of control | dose: 400.0 mg/kg/injection, schedule: Q04DX003 (ip), vehicle: saline with Tween-80 101 % of control

O=C1NC(=O)C(F)[CH]([Ge](=[O])[O][Ge](=[O])[CH]2NC(=O)NC(=O)C2F)N1 (stereo unspecified)
inactive: dose: 30.0 mg/kg/injection, schedule: Q04DX002 (ip), vehicle: water 100 % of control | dose: 60.0 mg/kg/injection, schedule: Q04DX002 (ip), vehicle: water 97 % of control | dose: 100.0 mg/kg/injection, schedule: Q04DX002 (ip), vehicle: water 91 % of control | dose: 120.0 mg/kg/injection, schedule: Q04DX002 (ip), vehicle: water 100 % of control | dose: 200.0 mg/kg/injection, schedule: Q04DX002 (ip), vehicle: water 92 % of control | dose: 240.0 mg/kg/injection, schedule: Q04DX002 (ip), vehicle: water 100 % of control

C(=C\c1nc2ccccc2s1)/c1ccc2c(c1)OCO2
inactive: [3] 90 % of control | [4] 90 % of control | [5] 100 % of control

COc1ccc(-n2c(=O)c(N=Nc3ccccc3OC)c(O)n(-c3ccccc3Cl)c2=S)cc1
inactive: dose: 50.0 mg/kg/injection, schedule: Q01DX001 (ip), vehicle: Klucel (hydroxypropylcellulose) (HPC) 100 % of control | [6] 99 % of control | [7] 93 % of control

COc1ccc2nc(N/N=C(/c3ccccc3)c3ccccn3)cc(C)c2c1
inactive: [8] 107 % of control | [9] 100 % of control | [10] 100 % of control

C=CCOCC(O)Cn1cnc2c(N)ncnc21 (stereo unspecified)
inactive: [11] 97 % of control | [12] 106 % of control | [13] 100 % of control

Reference: PubChem BioAssay AID330 (DTP/NCI, 2004)
